Measurements from PubChem BioAssay AID328 (DTP/NCI, 2004).
Several values for one entry are separate records, joined by “and”; a condition that tells them apart may be missing. Equal entries are not always repeated. Toxic doses and inconclusive results are not listed. How the source made its calls: active means survival T/C of 150% or more; inactive means T/C below 125% in these data.

System: BDF1 mice, P388 leukemia ip, median survival T/C
Experiment: NCI In Vivo Anticancer Drug Screen. Data for tumor model P388 Leukemia (intraperitoneal) in B6D2F1 (BDF1) mice
Details: endpoint: median survival time, higher = longer survival
Outline: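 Read-out is survival of treated animals expressed relative to the vehicle group, as a T/C ratio.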

[1] = dose: 100.0 mg/kg/injection, schedule: Q01DX009 (ip), vehicle: saline
[2] = dose: 100.0 mg/kg/injection, schedule: Q04DX003 (ip), vehicle: saline
[3] = dose: 200.0 mg/kg/injection, schedule: Q01DX009 (ip), vehicle: saline
[4] = dose: 200.0 mg/kg/injection, schedule: Q04DX003 (ip), vehicle: saline
[5] = dose: 400.0 mg/kg/injection, schedule: Q01DX009 (ip), vehicle: saline
[6] = dose: 400.0 mg/kg/injection, schedule: Q04DX003 (ip), vehicle: saline
[7] = dose: 50.0 mg/kg/injection, schedule: Q01DX009 (ip), vehicle: saline with Tween-80
[8] = dose: 100.0 mg/kg/injection, schedule: Q01DX009 (ip), vehicle: saline with Tween-80
[9] = dose: 200.0 mg/kg/injection, schedule: Q01DX009 (ip), vehicle: saline with Tween-80
[10] = dose: 25.0 mg/kg/injection, schedule: Q04DX003 (ip), vehicle: saline with Tween-80
[11] = dose: 50.0 mg/kg/injection, schedule: Q04DX003 (ip), vehicle: saline with Tween-80
[12] = dose: 100.0 mg/kg/injection, schedule: Q01DX009 (ip), vehicle: Klucel (hydroxypropylcellulose) (HPC)
[13] = dose: 100.0 mg/kg/injection, schedule: Q04DX003 (ip), vehicle: Klucel (hydroxypropylcellulose) (HPC)
[14] = dose: 200.0 mg/kg/injection, schedule: Q01DX009 (ip), vehicle: Klucel (hydroxypropylcellulose) (HPC)
[15] = dose: 200.0 mg/kg/injection, schedule: Q04DX003 (ip), vehicle: Klucel (hydroxypropylcellulose) (HPC)
[16] = dose: 400.0 mg/kg/injection, schedule: Q01DX009 (ip), vehicle: Klucel (hydroxypropylcellulose) (HPC)
[17] = dose: 400.0 mg/kg/injection, schedule: Q04DX003 (ip), vehicle: Klucel (hydroxypropylcellulose) (HPC)
[18] = dose: 25.0 mg/kg/injection, schedule: Q01DX009 (ip), vehicle: saline with Tween-80
[19] = dose: 100.0 mg/kg/injection, schedule: Q04DX003 (ip), vehicle: saline with Tween-80

Measured: T/C

[N-]=[N+]=NCC(=O)NCc1cnccn1
inactive: dose: 12.5 mg/kg/injection, schedule: Q01DX009 (ip), vehicle: saline 116 % of control | dose: 25.0 mg/kg/injection, schedule: Q01DX009 (ip), vehicle: saline 116 % of control | [1] 106 % of control | [2] 109 % of control | [3] 116 % of control | [4] 108 % of control | [5] 119 % of control | [6] 109 % of control

Nc1nc(N)c2c(n1)CCC(S(=O)(=O)c1ccc3ccccc3c1)C2 (stereo not drawn)
inactive: [7] 103 % of control and 114 % of control | [8] 122 % of control and 124 % of control | [9] 123 % of control

COC(=O)C1(C)CCC(c2ccc(OC)cc2)CC1=O (stereo not drawn)
inactive: dose: 50.0 mg/kg/injection, schedule: Q01DX009 (ip), vehicle: saline 86 % of control | [1] 100 % of control | [2] 100 % of control | [3] 109 % of control | [4] 103 % of control

O=C(Nc1ccccc1)N(C(=O)C(F)(F)F)c1ccccc1
inactive: [7] 95 % of control | [8] 92 % of control | [9] 90 % of control

CCCCCCCCCCC(N)P(=O)(O)O (stereo not drawn)
inactive: dose: 12.5 mg/kg/injection, schedule: Q04DX003 (ip), vehicle: saline with Tween-80 92 % of control | [10] 92 % of control | [11] 92 % of control

CCC(=O)Nc1cc(Cl)ccc1C
inactive: dose: 50.0 mg/kg/injection, schedule: Q04DX003 (ip), vehicle: Klucel (hydroxypropylcellulose) (HPC) 118 % of control | [12] 109 % of control | [13] 109 % of control | [14] 90 % of control | [15] 104 % of control | [16] 90 % of control | [17] 100 % of control

CC1(C)OC(COCCOCCO)C(COCCOCCO)O1 (stereo not drawn)
inactive: [2] 96 % of control | [4] 103 % of control | [6] 96 % of control

CCCCCc1cc(/C=C2/N=C(c3ccc[nH]3)C=C2OC)[nH]c1C
inactive: dose: 1.0 mg/kg/injection, schedule: Q01DX009 (ip), vehicle: other 118 % of control | dose: 2.0 mg/kg/injection, schedule: Q01DX009 (ip), vehicle: other 118 % of control

CC(C)CC(NC(=O)c1ccccc1)C(=O)O (stereo not drawn)
inactive: dose: 100.0 mg/kg/injection, schedule: Q04DX003 (ip), vehicle: alkali diluted with water 99 % of control | dose: 200.0 mg/kg/injection, schedule: Q04DX003 (ip), vehicle: alkali diluted with water 99 % of control | dose: 400.0 mg/kg/injection, schedule: Q04DX003 (ip), vehicle: alkali diluted with water 108 % of control

O=C1CCCN1
inactive: dose: 50.0 mg/kg/injection, schedule: Q01DX001 (ip), vehicle: saline 100 % of control | dose: 50.0 mg/kg/injection, schedule: Q04DX003 (ip), vehicle: saline 95 % of control | dose: 100.0 mg/kg/injection, schedule: Q01DX001 (ip), vehicle: saline 118 % of control | [1] 105 % of control | [2] 87 % of control | dose: 200.0 mg/kg/injection, schedule: Q01DX001 (ip), vehicle: saline 100 % of control | [3] 110 % of control | [5] 110 % of control

CC/C(C)=C1\OC(=O)C(C)C(O)C(Cc2cccnc2)NC(=O)C(NC(=O)c2ncccc2O)C(C)OC1=O (stereo not drawn)
inactive: dose: 3.13 mg/kg/injection, schedule: Q01DX009 (ip), vehicle: saline with Tween-80 97 % of control | dose: 6.25 mg/kg/injection, schedule: Q01DX009 (ip), vehicle: saline with Tween-80 106 % of control | dose: 12.5 mg/kg/injection, schedule: Q01DX009 (ip), vehicle: saline with Tween-80 103 % of control | [18] 93 % of control

CCC(C)C(NC(=O)OCc1ccccc1)C(=O)ON1C(=O)CCC1=O (stereo not drawn)
inactive: [19] 118 % of control | dose: 400.0 mg/kg/injection, schedule: Q04DX003 (ip), vehicle: saline with Tween-80 109 % of control

CC(C)CCOC(=O)Cc1ccccc1
inactive: [12] 100 % of control | [13] 90 % of control | [14] 115 % of control | [15] 113 % of control | [16] 115 % of control | [17] 118 % of control

CCCCOB(CCl)OCCCC
inactive: dose: 6.25 mg/kg/injection, schedule: Q01DX001 (ip), vehicle: saline 104 % of control | dose: 12.5 mg/kg/injection, schedule: Q01DX001 (ip), vehicle: saline 100 % of control | dose: 25.0 mg/kg/injection, schedule: Q01DX001 (ip), vehicle: saline 100 % of control

O=C1SC(c2ccccc2)=S=C1c1ccccc1
inactive: [7] 108 % of control | [8] 123 % of control | [9] 123 % of control | dose: 400.0 mg/kg/injection, schedule: Q01DX009 (ip), vehicle: saline with Tween-80 117 % of control

O=c1[nH]cc[nH]1
inactive: [1] 95 % of control | [2] 100 % of control | [3] 114 % of control | [4] 108 % of control | dose: 264.0 mg/kg/injection, schedule: Q01DX009 (ip), vehicle: saline 122 % of control | [5] 122 % of control | [6] 104 % of control

C=CCC1(CCC)C(=O)NC(=O)NC1=O
inactive: [10] 91 % of control | [11] 91 % of control | [19] 95 % of control

CCN(CCO)CCNc1ccc(C)c2sc3ccccc3c(=O)c12
inactive: [18] 122 % of control | dose: 66.0 mg/kg/injection, schedule: Q04DX003 (ip), vehicle: saline with Tween-80 103 % of control | [8] 104 % of control | [19] 117 % of control
